Assay results from patent US20240398899A1 (priority 2021, published 2024).

Experiments:
Assay type in all cases: cell-based, human
SH-SY5Y neuronal cells [1] = test: Mitochondrial membrane potential against MPP+ iodide damage, JC-1 assay; details: MPP+ iodide 1 mM; for Mitochondrial membrane potential: red/green fluorescence ratio
Experimental: The plated cells were incubated overnight in 5% CO2 incubator at 37° C. After 24 h, cells were treated with concentrations of recombinant lectin protein having SEQ ID NO: 1 ranging from 1 μg/ml-50 μg/ml for 24 h. After 24 h of treatment, cells were exposed to damage (MPP+ iodide 1 mM) for 24 h. […] Untreated cells were included as control. Cells treated with Deprenyl served as positive control. After MPP+ iodide exposure, the protective effect of recombinant lectin protein having SEQ ID NO: 1 on mitochondrial membrane potential was assessed by JC-1 assay as follows; after incubation, the supernatants were discarded and 100 μl of JC1-dye solution (prepared by diluting 1 mM DMSO stock in to 10 μM in 1×PBS) was added to each well. The cells were then incubated with the dye in CO2 incubator at 37° C. for 15 min. After 15 min of incubation, the supernatant was removed, and the cells were washed twice with 1×PBS (phosphate buffer saline). 100 μl of 1×PBS was finally added to each well. Red fluorescence (excitation 550 nm, emission 600 nm) and green fluorescence (excitation 485 nm, emission 535 nm) were measured using Biotek Synergy HT plate reader. The mitochondrial membrane potential (Δψm) was calculated as the ratio of intensity of red fluorescence to intensity of green fluorescence described as follows: • Δψm=Intensity of red fluorescence/Intensity of green fluorescence • The percentage increase/restoration in Mitochondrial Membrane Potential against MPP+ iodide damage was calculated as:
[formula] • Where X=Δψm corresponding to SEQ ID NO: 1+ MPP+ iodide treated cells • R=Δψm corresponding to control cells (MPP+ iodide damage alone)

SH-SY5Y neuronal cells [2] = test: Sub (G0/G1) cell population by PI cell cycle assay against MPP+ iodide damage; details: MPP + Iodide (2 mM); for % Decrease in Apoptotic cells (wrt MPP + iodide): SubG0/G1
Experimental: After incubation as in Example 2a and 2b, cells were harvested by trypsinization and processed for Cell cycle assay as follows: Cell cycle reagent contains PI stain, which stains DNA of cells in different phases of cell cycle; Sub (G0/G1), G1, S, G2 and M. Cells in Sub (G0/G1) phase correspond to apoptotic cells.
Cells were gently harvested into pre-labelled centrifuge tubes and centrifuged at 450 g for 5 min, RT (low brake). The supernatants were removed carefully and discarded. 1 ml of 1×PBS was added to the pellet and resuspended gently to make homogenous suspension. Cells were centrifuged at 450 g for 5 min, RT (low brake). The supernatant was carefully removed leaving behind approximately 100 μl of PBS. Cells were resuspended gently yet thoroughly in residual PBS. The cells were fixed by adding Ice-cold 70% ethanol (100 μl) added dropwise into cells in each tube while vortexing at low speed Cells were stored at 4° C. for 24 h prior to staining.
Ethanol fixed cells were centrifuged at 450 g for 5 min, RT (low brake) the supernatant was carefully removed (not to touch the pellet) and discarded. 1 ml of 1×PBS was added into pellet and resuspended gently. Cells were incubated for 1 minute at RT. Cells were centrifuged at 450 g for 5 min, RT (low brake). (washing step) The supernatant was removed carefully leaving behind approx. 20 μl-50 μl of PBS. 200 μl of Cell Cycle reagent was added into each tube. Cells were resuspended gently and mixed. Cells were incubated for 30 min, RT, Dark. The stained samples were transferred into 96-well plates and acquired on flow cytometer (Guava technologies). Percentage of cells in Sub (G0/G1) phase were determined.
Percent inhibition in apoptotic cells=[(% Sub(G0/G1)cells in MPP+iodide alone) −(% Sub(G0/G1)cells in SEQ ID NO:1+MPP+iodide)/% Sub(G0/G1)cells in MPP+iodide alone]*100

SH-SY5Y neuronal cells [3] = test: Annexin-V staining of apoptotic cells against MPP+ iodide damage; details: MPP+ iodide 1 mM; for % Decrease in Apoptotic cells (wrt MPP + iodide): Annexin
Experimental: After 24 h of treatment, cells were exposed to damage (MPP+ iodide 1 mM) for 24 h. […] Untreated cells were included as control. Cells treated with Deprenyl served as positive control. After treatment, cells were harvested by trypsinization and processed for Annexin V assay as follows: Cell were gently harvested into pre-labeled sterile centrifuge tubes and centrifuged at 300×g for 5-7 min. After 24 h of treatment, cells were exposed to damage (MPP+ iodide 1 mM) for 24 h. Cells treated with MPP+ iodide alone were included as Control. Untreated cells were included as negative control. Cells treated with Deprenyl served as positive control. After treatment, cells were harvested by trypsinization and processed for Annexin V assay as follows: Cell were gently harvested into pre-labelled sterile centrifuge tubes and centrifuged at 300×g for 5-7 min. Supernatant were discarded and the pellet was resuspended in 200 μl of fresh culture medium. 100 μl of cell suspension was transferred into pre-labeled sterile centrifuge tubes. 100 μl of Annexin-V reagent was added to each tube and incubated for 30 min at RT in dark. Cells stained for Annexin-V were then transferred into 96-well plates and acquired on flow cytometer (Guava technologies). Percentage of Annexin-V positive cells was determined.
Percent inhibition in apoptotic cells=[(% Annexin positive cells in MPP+iodide alone)−(% Annexin positive cells in Recombinant Lectin having SEQ ID NO:1+MPP+iodide)/% Annexin positive cells in MPP+iodide alone]*100

## C#CCN(C)[C@H](C)Cc1ccccc1 [Deprenyl, reference compound]
SH-SY5Y neuronal cells [1]; 1 μM
  % Increase in Mitochondrial potential (w.r.t. control): 58.2%
  Mitochondrial membrane potential: 2.9
SH-SY5Y neuronal cells [1]; 10 μM
  % Increase in Mitochondrial potential (w.r.t. control): 67.9%
  Mitochondrial membrane potential: 3.1
SH-SY5Y neuronal cells [1]; 25 μM
  % Increase in Mitochondrial potential (w.r.t. control): 95.3%
  Mitochondrial membrane potential: 3.6
SH-SY5Y neuronal cells [1]; 50 μM
  % Increase in Mitochondrial potential (w.r.t. control): 79.6%
  Mitochondrial membrane potential: 3.3
SH-SY5Y neuronal cells [1]; 100 μM
  % Increase in Mitochondrial potential (w.r.t. control): 39.9%
  Mitochondrial membrane potential: 2.6
SH-SY5Y neuronal cells [2]; 10 μM
  % Apoptotic cells (SubG0/G1): 2.9%
  % Decrease in Apoptotic cells (wrt MPP + iodide): 12.8%
SH-SY5Y neuronal cells [2]; 25 μM
  % Apoptotic cells (SubG0/G1): 2.4%
  % Decrease in Apoptotic cells (wrt MPP + iodide): 28.3%
SH-SY5Y neuronal cells [2]; 100 μM
  % Apoptotic cells (SubG0/G1): 2%
  % Decrease in Apoptotic cells (wrt MPP + iodide): 42%
SH-SY5Y neuronal cells [3]; 10 μM
  % Apoptotic cells (Anenxin + ve): 3%
  % Decrease in Apoptotic cells (wrt MPP + iodide): 27.2%
SH-SY5Y neuronal cells [3]; 25 μM
  % Apoptotic cells (Anenxin + ve): 2.5%
  % Decrease in Apoptotic cells (wrt MPP + iodide): 38.3%
SH-SY5Y neuronal cells [3]; 100 μM
  % Apoptotic cells (Anenxin + ve): 2.9%
  % Decrease in Apoptotic cells (wrt MPP + iodide): 28.4%
